These results are taken from ChEMBL document CHEMBL1127067 (1993).

Structures are written as SMILES.

Common to all, as to type: functional
The species entered for experiment [1] is Mus musculus. The experiment can be described thus: Number of survivors after treating 12 mice (infected with B16 melanoma) for 60 days.
Experiment [2] relates to Mus musculus. Nature of the experiment: Antitumor activity against P388 leukemia in BDF1/CDF1 mice expressed as percentage increase in life span at optimum dose of 12.5 mg/kg.
The species named for experiment [3] is Mus musculus. The experiment can be described thus: Number of survivors after treating 42 mice (infected with P388 leukemia) for 30 days.
The subject of experiment [4] is Mus musculus. The experiment can be described thus: Antitumor activity against B-16 melanoma in BDF1 mice expressed as percentage increase in life span at optimum dose of 6 mg/kg. To be noted: B16.

For orientation: ILS means the gain in survival time of treated over control animals, in per cent. A low value points to little gain in survival. Regarding `C(=N\NC1=NCCN1)/c1c2ccccc2c(/C=N/NC2=NCCN2)c2ccccc12` [BISANTRENE], the Cures in experiment [1] worked out at 2; in experiment [3], 17. The ILS at 12.5 mg/kg in experiment [2] is 137%. The ILS at 6 mg/kg in experiment [4] was 122%.
